From patent publication US20120302569A1, “PHENYL-THIAZOLYL INHIBITORS OF PRO-MATRIX METALLOPROTEINASE ACTIVATION” (priority 2011, published 2012)
Structures can show the parent of a compound that is named as a salt.

Columns and labels:
[1] = target: T1, proMMP9(67-444;ΔFnII) (SEQ ID NO:5) (Homo sapiens, UniProt P14780, DEL216-390); assay: ThermoFluor with proMMP9(67-444;ΔFnII); conditions: read-out: proMMP9(67-444; ΔFnII) (SEQ ID NO: 5) binding
T1 construct: start methionine (N); made in house; host or cells: E. coli BL21(DE3) RIL
T1 sequence (P14780 with tags, fused parts or gaps DEL216-390): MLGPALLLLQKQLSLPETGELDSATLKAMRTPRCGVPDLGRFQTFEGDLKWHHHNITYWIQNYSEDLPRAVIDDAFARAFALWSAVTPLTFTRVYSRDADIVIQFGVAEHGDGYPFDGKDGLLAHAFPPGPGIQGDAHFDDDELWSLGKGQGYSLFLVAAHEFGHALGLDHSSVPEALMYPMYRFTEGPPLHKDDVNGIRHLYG
How it was run: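 Thermal shift with 3.5 μM protein and 50 μM 1,8-ANS in 50 mM HEPES pH 7.0, 100 mM NaCl, 0.001% Tween-20, 2.5 mM MgCl2, 300 μM CaCl2, heated 40–90 °C at 1 °C/min. Fluorescence (500±25 nm) fit to yield Tm; binding fitted using DSC/ThermoFluor-derived thermodynamic parameters, compounds dosed as serial dilutions.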

[2] = target: T2, proMMP13(1-268) (SEQ ID NO:7) (Homo sapiens, UniProt P45452); assay: ProMMP13/Plasmin P126 Activation Assay; format: biochemical; conditions: proMMP13(1-268) activated by plasmin
T2 construct: 6×-histidine tag (C); made in house; host or cells: HEK293 (transient transfection, secreted)
Method: ProMMP13/Plasmin P126 Activation Assay
On the day of assay, proMMP13(1-268) (SEQ ID NO:7) purified from HEK293 cells and plasmin were diluted to 160 nM and 320 nM, respectively, in assay buffer. The reaction volume was 50 μL. […] The plate was sealed and incubated for 40 min at 37° C. […] Plasmin was not reactive towards P-126 substrate under these conditions.

[3] = target: T3, proMMP9(20-445;ΔFnII) (SEQ ID NO:6) (Homo sapiens, UniProt P14780, DEL216-390); assay: ThermoFluor with proMMP9(20-445;ΔFnII); conditions: read-out: proMMP9(20-445; ΔFnII) (SEQ ID NO: 6) binding
T3 construct: start methionine (N); made in house; host or cells: E. coli BL21(DE3) RIL
T3 sequence (P14780 with tags, fused parts or gaps DEL216-390): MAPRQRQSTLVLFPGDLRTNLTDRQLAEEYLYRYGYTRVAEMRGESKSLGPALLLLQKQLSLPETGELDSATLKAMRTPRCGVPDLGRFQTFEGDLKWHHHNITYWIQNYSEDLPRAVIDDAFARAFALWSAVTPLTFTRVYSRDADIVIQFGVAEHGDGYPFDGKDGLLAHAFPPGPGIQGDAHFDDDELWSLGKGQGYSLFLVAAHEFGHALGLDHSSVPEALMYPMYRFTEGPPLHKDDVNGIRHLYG
How it was run: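 Thermal shift of 2.8 μM desalted proMMP9(20-445;ΔFnII) with 50 μM 1,8-ANS in 50 mM HEPES pH 7.0, NaCl, Tween-20, MgCl2, CaCl2; heated 40-90 °C at 1 °C/min, emission 500 nm. Tm from fitted curves; binding fit using DSC/ThermoFluor-derived unfolding parameters for 11-point compound dilutions.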

[4] = target: T4, full-length proMMP9(1-707) (SEQ ID NO:1) (Homo sapiens, UniProt P14780, R574P); assay: proMMP9/MMP3 P126 Activation Assay; format: biochemical; conditions: proMMP9(1-707) from HEK293 cells activated by catalytic MMP3
T4 construct: made in house; host or cells: HEK293 (proMMP9, secreted); E. coli (MMP3)
T4 sequence (P14780 20-707 R574P): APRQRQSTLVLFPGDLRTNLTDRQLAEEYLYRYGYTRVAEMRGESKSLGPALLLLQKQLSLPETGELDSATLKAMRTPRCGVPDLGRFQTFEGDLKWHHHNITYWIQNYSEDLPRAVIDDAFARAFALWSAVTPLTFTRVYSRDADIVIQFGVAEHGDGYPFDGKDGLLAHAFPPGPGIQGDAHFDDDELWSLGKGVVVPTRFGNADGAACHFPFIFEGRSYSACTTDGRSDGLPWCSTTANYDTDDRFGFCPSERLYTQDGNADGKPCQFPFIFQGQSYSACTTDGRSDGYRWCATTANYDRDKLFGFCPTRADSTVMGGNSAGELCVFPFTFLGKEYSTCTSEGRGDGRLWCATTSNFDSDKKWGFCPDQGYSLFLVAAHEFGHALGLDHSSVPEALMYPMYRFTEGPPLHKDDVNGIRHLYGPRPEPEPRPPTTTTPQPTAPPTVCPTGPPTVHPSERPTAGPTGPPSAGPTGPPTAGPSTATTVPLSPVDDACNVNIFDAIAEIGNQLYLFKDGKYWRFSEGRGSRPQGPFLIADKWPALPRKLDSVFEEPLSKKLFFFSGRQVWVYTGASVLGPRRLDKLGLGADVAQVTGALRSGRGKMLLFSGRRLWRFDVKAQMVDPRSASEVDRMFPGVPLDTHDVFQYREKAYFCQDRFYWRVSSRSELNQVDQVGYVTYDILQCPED
Method: proMMP9/MMP3 P126 Activation Assay
The reaction volume was 50 μL. […] Reactivity of residual MMP3 towards P-126 substrate was minimal under these conditions.

Work on `CC(C)Oc1ccc(C(N)=O)cc1Nc1nc(-c2ccc(N3CCNCC3)cc2)cs1` [Example 7, 4-Isopropoxy-3-((4-(4-(piperazin-1-yl)phenyl)thiazol-2-yl)amino)benzamide.TFA] yielded a Kd [1] of 21 nM, an IC50 [2] of 77 nM and a Kd [3] of 13 nM. The IC50 [4] was 28 nM.

With `CC(C)Oc1ccc(C(N)=O)cc1Nc1nc(-c2ccc(N3CCN(C(C)C)CC3)cc2)cs1` [Example 10, 4-Isopropoxy-3-((4-(4-(4-isopropylpiperazin-1-yl)phenyl)thiazol-2-yl)amino)benzamide.HCl] the Kd [1] was 33 nM, the IC50 [2] was 120 nM and the Kd [3] was 17 nM. The IC50 [4] was 50 nM.

Compound `CC(C)Oc1ccc(S(N)(=O)=O)cc1Nc1nc(-c2ccc(C3=CCNCC3)cc2)cs1` [Example 12, 4-Isopropoxy-3-((4-(4-(1,2,3,6-tetrahydropyridin-4-yl)phenyl)thiazol-2-yl)amino)benzenesulfonamide.TFA] has a Kd [1] of 12 nM, an IC50 [2] of 340 nM and a Kd [3] of 18 nM. For the same compound, the IC50 [4] was 66 nM.

`CC(C)Oc1ccc(S(N)(=O)=O)cc1Nc1nc(-c2ccc(C3=CCN(C)CC3)cc2)cs1` [Example 13, 4-Isopropoxy-3-((4-(4-(1-methyl-1,2,3,6-tetrahydropyridin-4-yl)phenyl)thiazol-2-yl)amino)benzenesulfonamide.TFA] showed a Kd [1] of 14 nM, an IC50 [2] of 190 nM and a Kd [3] of 17 nM. It also gave an IC50 [4] of 24 nM.

Compound `CC(C)Oc1ccc(C(N)=O)cc1Nc1nc(-c2ccc(C3=CCN(C)CC3)cc2)cs1` [Example 17, 4-Isopropoxy-3-((4-(4-(1-methyl-1,2,3,6-tetrahydropyridin-4-yl)phenyl)thiazol-2-yl)amino)benzamide.TFA] has a Kd [1] of 24 nM, an IC50 [2] of 91 nM and a Kd [3] of 11 nM. It also gave an IC50 [4] of 26 nM.

Compound `CCN1CC=C(c2ccc(-c3csc(Nc4cc(C(N)=O)ccc4OC(C)C)n3)cc2)CC1` [Example 18, 3-((4-(4-(1-Ethyl-1,2,3,6-tetrahydropyridin-4-yl)phenyl)thiazol-2-yl)amino)-4-isopropoxybenzamide.TFA] has a Kd [1] of 51 nM, an IC50 [2] of 32 nM and a Kd [3] of 17 nM. For the same compound, the IC50 [4] was 25 nM.

In the case of `CC(C)Oc1ccc(C(N)=O)cc1Nc1nc(-c2ccc(C3=CCN(C(C)C)CC3)cc2)cs1` [Example 19, 4-Isopropoxy-3-((4-(4-(1-isopropyl-1,2,3,6-tetrahydropyridin-4-yl)phenyl)thiazol-2-yl)amino)benzamide.TFA], the Kd [1] is reported as 21 nM, the IC50 [2] is reported as 87 nM and the Kd [3] is reported as 13 nM. For the same compound, the IC50 [4] was 28 nM.

In the case of `CCOc1ccncc1Nc1nc(-c2ccc(C3=CCN(CC)CC3)cc2)cs1` [Example 22, N-(4-Ethoxypyridin-3-yl)-4-(4-(1-ethyl-1,2,3,6-tetrahydropyridin-4-yl)phenyl)thiazol-2-amine.TFA], the Kd [1] is reported as 36 nM, the IC50 [2] is reported as 1200 nM and the Kd [3] is reported as 340 nM. It also gave an IC50 [4] of 69 nM.

`CCOc1ccncc1Nc1nc(-c2ccc(C3=CCN(C(C)C)CC3)cc2)cs1` [Example 23, N-(4-Ethoxypyridin-3-yl)-4-(4-(1-isopropyl-1,2,3,6-tetrahydropyridin-4-yl)phenyl)thiazol-2-amine.TFA] was tested, and the Kd [1] was 35 nM, the IC50 [2] was 850 nM and the Kd [3] was 510 nM. For the same compound, the IC50 [4] was 60 nM.

`CC(C)Oc1ccc(C(N)=O)cc1Nc1nc(-c2ccc(OCCN3CCN(C)CC3)cc2)cs1` [Example 42, 4-isopropoxy-3-((4-(4-(2-(4-methylpiperazin-1-yl)ethoxy)phenyl)thiazol-2-yl)amino)benzamide.TFA] gave a Kd [1] of 78 nM, an IC50 [2] of 270 nM and a Kd [3] of 16 nM. It also gave an IC50 [4] of 27 nM.

In the case of `CCOc1ccncc1Nc1nc(-c2ccc(OCCN3CCN(C)CC3)cc2)cs1` [Example 43, N-(4-ethoxypyridin-3-yl)-4-(4-(2-(4-methylpiperazin-1-yl)ethoxy)phenyl)thiazol-2-amine.TFA], the Kd [1] is reported as 89 nM, the IC50 [2] is reported as 2900 nM and the Kd [3] is reported as 550 nM. The IC50 [4] was 70 nM.

In the case of `CC(C)Oc1ccc(C(N)=O)cc1Nc1nc(-c2ccc(OCCN3CCN(C4CC4)CC3)cc2)cs1` [Example 44, 3-((4-(4-(2-(4-cyclopropylpiperazin-1-yl)ethoxy)phenyl)thiazol-2-yl)amino)-4-isopropoxybenzamide.TFA], the Kd [1] is reported as 110 nM, the IC50 [2] is reported as 520 nM and the Kd [3] is reported as 24 nM. For the same compound, the IC50 [4] was 43 nM.

With `CC(C)Oc1ccc(S(N)(=O)=O)cc1Nc1nc(-c2ccc(OCCN3CCN(C4CC4)CC3)cc2)cs1` [Example 45, 3-((4-(4-(2-(4-cyclopropylpiperazin-1-yl)ethoxy)phenyl)thiazol-2-yl)amino)-4-isopropoxybenzenesulfonamide.TFA] the Kd [1] was 56 nM, the IC50 [2] was 950 nM and the Kd [3] was 29 nM. The IC50 [4] was 41 nM.

With `CC(C)Oc1ccc(C(N)=O)cc1Nc1nc(-c2ccc(OCCCN3CCOCC3)cc2)cs1` [Example 46, 4-isopropoxy-3-((4-(4-(3-morpholinopropoxy)phenyl)thiazol-2-yl)amino)benzamide.TFA] the Kd [1] was 99 nM, the IC50 [2] was 340 nM and the Kd [3] was 20 nM. For the same compound, the IC50 [4] was 62 nM.

With `CC(C)Oc1ccc(S(N)(=O)=O)cc1Nc1nc(-c2ccc(OCCCN3CCOCC3)cc2)cs1` [Example 47, 4-isopropoxy-3-((4-(4-(3-morpholinopropoxy)phenyl)thiazol-2-yl)amino)benzenesulfonamide.TFA] the Kd [1] was 77 nM, the IC50 [2] was 600 nM and the Kd [3] was 32 nM. For the same compound, the IC50 [4] was 76 nM.

`CC(C)Oc1ccc(C(N)=O)cc1Nc1nc(-c2ccc(CN3CCN(C)CC3)cc2)cs1` [Example 48, 4-isopropoxy-3-((4-(4-((4-methylpiperazin-1-yl)methyl)phenyl)thiazol-2-yl)amino)benzamide.TFA] was tested, and the Kd [1] was 99 nM, the IC50 [2] was 850 nM and the Kd [3] was 20 nM. It also gave an IC50 [4] of 110 nM.

`CC(C)Oc1ccc(S(N)(=O)=O)cc1Nc1nc(-c2ccc(CN3CCN(C)CC3)cc2)cs1` [Example 49, 4-isopropoxy-3-((4-(4-((4-methylpiperazin-1-yl)methyl)phenyl)thiazol-2-yl)amino)benzenesulfonamide.TFA] showed a Kd [1] of 40 nM, an IC50 [2] of 3400 nM and a Kd [3] of 26 nM. The IC50 [4] was 180 nM.

Work on `CC(C)Oc1ccc(C(N)=O)cc1Nc1nc(-c2ccc(CN3CCN(C4CC4)CC3)cc2)cs1` [Example 50, 3-((4-(4-((4-cyclopropylpiperazin-1-yl)methyl)phenyl)thiazol-2-yl)amino)-4-isopropoxybenzamide.TFA] yielded a Kd [1] of 100 nM, an IC50 [2] of 680 nM and a Kd [3] of 22 nM. For the same compound, the IC50 [4] was 49 nM.

With `CC(C)Oc1ccc(S(N)(=O)=O)cc1Nc1nc(-c2ccc(CN3CC[C@@H](F)C3)cc2)cs1` [Example 53, (R)-3-((4-(4-((3-fluoropyrrolidin-1-yl)methyl)phenyl)thiazol-2-yl)amino)-4-isopropoxybenzenesulfonamide.TFA] the Kd [1] was 95 nM, the IC50 [2] was 930 nM and the Kd [3] was 58 nM. It also gave an IC50 [4] of 59 nM.

With `CC(C)Oc1ccc(C(N)=O)cc1Nc1nc(-c2ccc(CN3CCN(C(C)C)CC3)cc2)cs1` [Example 56, 4-isopropoxy-3-((4-(4-((4-isopropylpiperazin-1-yl)methyl)phenyl)thiazol-2-yl)amino)benzamide.TFA] the Kd [1] was 80 nM, the IC50 [2] was 420 nM and the Kd [3] was 18 nM. For the same compound, the IC50 [4] was 100 nM.

In the case of `COc1ccc(F)cc1Nc1nc(-c2ccc(OCCN3CCN(C)CC3)cc2)cs1` [Example 69, N-(5-fluoro-2-methoxyphenyl)-4-(4-(2-(4-methylpiperazin-1-yl)ethoxy)phenyl)thiazol-2-amine.TFA], the Kd [1] is reported as 360 nM, the IC50 [2] is reported as 4300 nM and the Kd [3] is reported as 1500 nM. The IC50 [4] was 90 nM.
